Holding throughout (assay type): in vivo
Test [1] has as its system Cowpea Aphid (Aphis craccivora). The test is described as follows: Cowpea aphid, potted cowpea plants sprayed. As to conditions: population reduction assessed after 24, 72 and 120 hours, read-out: mortality in comparison with untreated controls. As for the experimental part:
II.3 Cowpea Aphid (Aphis craccivora)
The active compounds were formulated in 50:50 (vol/vol) acetone:water. The test solution was prepared at the day of use.
Potted cowpea plants colonized with 100-150 aphids of various stages were sprayed after the pest population had been recorded. Population reduction was assesed after 24, 72, and 120 hours.

Test [2] has as its system Vetch Aphid (Megoura viciae). The test is described as follows: Vetch aphid, bean leaf disks in microtiterplates. To be noted: foliar, 144 h, test solution 2500 mg/L, bean leaf disks sprayed, 6 days. As for the experimental part:
II.4 Vetch Aphid (Megoura viciae)
The active compounds were formulated in 1:3 (vol/vol) DMSO:water with different concentrations of formulated compounds.
Bean leaf disks were placed into microtiterplates filled with 0.8% agar-agar and 2.5 ppm OPUS™. The leaf disks were sprayed with 2.5 μl of the test solution and 5 to 8 adult aphids were placed into the microtiterplates which were then closed and kept at 23±1° C. and 50±5% relative humidity under fluorescent light for 6 days. Mortality was assessed on the basis of vital, reproduced aphids. Aphid mortality and fecundity was then visually assessed.

The test system of test [3] is Cotton Aphid (Aphis gossypii, Mixed Life Stages). The test is described as follows: Cotton aphid, method a (cotyledon dip). To be noted: 120 h, cotton cotyledons dipped, after 5 days, read-out: mortality in comparison with untreated controls. The text has this: II.1 Cotton Aphid (Aphis gossypii, Mixed Life Stages)
The active compounds were formulated in 50:50 (vol/vol) acetone:water and 100 ppm Kinetica™ surfactant.
Cotton plants at the cotyledon stage (one plant per pot) were infested by placing a heavily infested leaf from the main colony on top of each cotyledon. The aphids were allowed to transfer to the host plant overnight, and the leaf used to transfer the aphids was removed. The cotyledons were dipped in the test solution and allowed to dry. After 5 days, mortality counts were made.

The structures appear in SMILES notation. A value given as a limit tells only on which side of the number the result lay.

As a reminder, the mortality is the percentage killed. Consider `Cc1c(C(=O)Nc2cccnc2)nnn1Cc1ccccc1` [Example 2, 1-Benzyl-5-methyl-1H-[1,2,3]triazole-4-carboxylic acid pyridin-3-ylamide], for which the mortality at 300 ppm is at least 90% in test [1] and at least 75% in test [3]. The molecule further displayed a mortality at 2500 µg/mL in test [2] of at least 90%.

The values above are taken from patent US10206401B2, “Pyridine compounds for controlling invertebrate pests II” (BASF SE, priority 2010, dated 2019).
